Patent publication US20220185832A1, “CD73 INHIBITORS” (BioArdis LLC, priority 2019, published 2022)
pIC50: −log10 of the molar value.

Legend:
[1] = molecular target: T1, Recombinant Human 5′-Nucleotidase (CD73) (Homo sapiens, UniProt P21589); experiment: CD73 Enzyme Assay; assay type: biochemical; settings: 0.5 nM human CD73, 30 μM AMP, PiColorLock phosphate detection, OD 635 nm; read-out: Potency (IC50)
T1 construct: CHO derived CD73 (Trp27-Lys547), with a C-terminal 6-His tag; 6-His (C); purchased R&D 5795-EN; host or cells: CHO
T1 sequence (P21589 27-547): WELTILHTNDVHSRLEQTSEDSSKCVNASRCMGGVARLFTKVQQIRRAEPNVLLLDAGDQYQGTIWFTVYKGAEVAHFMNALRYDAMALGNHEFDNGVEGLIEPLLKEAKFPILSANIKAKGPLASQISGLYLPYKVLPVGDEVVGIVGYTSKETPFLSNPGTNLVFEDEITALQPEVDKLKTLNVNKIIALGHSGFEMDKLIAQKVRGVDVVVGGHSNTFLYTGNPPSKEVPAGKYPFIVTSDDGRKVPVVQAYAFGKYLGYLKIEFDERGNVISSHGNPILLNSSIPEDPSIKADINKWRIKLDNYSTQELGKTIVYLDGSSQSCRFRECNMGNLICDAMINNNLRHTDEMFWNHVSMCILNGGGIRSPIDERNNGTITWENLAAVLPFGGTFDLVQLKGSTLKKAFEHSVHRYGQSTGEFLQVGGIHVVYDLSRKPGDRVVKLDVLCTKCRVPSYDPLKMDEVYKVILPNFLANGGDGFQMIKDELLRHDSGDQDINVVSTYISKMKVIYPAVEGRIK
Excerpt: Soluble recombinant CD73 catalyzes the conversion of adenosine monophosphate (AMP) to adenosine and inorganic phosphate. The phosphate detection reagent, PiColorLock™ (Innova Bioscience, Cat #303-0125) is based on the change in absorbance of the dye malachite green in the presence of inorganic phosphate (Pi) and this property can be exploited to measure any enzyme that generates Pi. Recombinant Human 5′-Nucleotidase (CD73) (R&D #5795-EN, CHO derived CD73 (Trp27-Lys547), with a C-terminal 6-His tag) was used in the enzymatic assay. This assay was run in a 384-well plate format (Corning® NBS™ 384 well plates, Cat #3640). The basic assay procedure involves two steps: 1) Enzyme reaction: The CD73 enzyme (R&D #5795-EN) is incubated in the presence or absence of compounds. AMP (sigma, cat #01930) is added to start the kinase reaction. 2) Detection step: “Gold mix” is added to the assay system, then stabilizers are added. After incubation the absorbance of the solution is read at OD 635 nm. The recorded OD signal is proportional to the enzyme activity.
Briefly, 25 μl human CD73 (0.5 nM final concentration) in the enzymatic buffer solutions (20 mM Tris, 25 mM NaCl, 1 mM MgCl2, pH 7.5, 0.005% Tween-20) were mixed with various concentrations of the test compound (dissolved in 100% DMSO). These solutions were incubated for 15 min at 25° C., and subsequently 25 μl AMP (30 μM final concentration) was added to start the reaction. The final reaction mixture of enzyme-substrate-compound was incubated for 20 min at 37° C. Meanwhile, “Gold mix” was prepared shortly before use by adding 1/100 vol. of accelerator to the PiColorLock™ Gold reagent. 12 μL/well of the “Gold mix” was added to assay plate containing 50 μL enzyme reaction buffer and incubated at 25° C. for 5 min. 5 μL/well stabilizer was added to the assay plate and incubated at 25° C. for 30 min. The absorbance of the well solutions was measured at 635 nm on a Spark 10M instrument (TECAN).
(§1) The percent (%) inhibition at each concentration of a compound was calculated relative to the OD value in the Max and Min control wells contained within each assay plate. The Max control wells contained enzyme and substrate as 0% inhibition, and the Min control wells only contained substrate without enzyme as 100% inhibition. The concentrations and percent inhibition values for a test compound are plotted and the concentration of the compound required to achieve 50% inhibition (IC50) was determined with a four-parameter logistic dose response equation.

[2] = molecular target: T2, Cell surface CD73 of U87 MG human glioblastoma cells (Homo sapiens, UniProt P21589); experiment: CD73 Cellular Assay; assay type: cell-based; settings: 5000 cells per well, 30 μM AMP, PiColorLock phosphate detection in supernatant, read-out: Potency (IC50)
T2 construct: Cell surface CD73 catalyzes the conversion of adenosine monophosphate (AMP) to adenosine and inorganic phosphate; endogenous in cells; host or cells: U87 MG human glioblastoma cells
T2 sequence (P21589 27-549): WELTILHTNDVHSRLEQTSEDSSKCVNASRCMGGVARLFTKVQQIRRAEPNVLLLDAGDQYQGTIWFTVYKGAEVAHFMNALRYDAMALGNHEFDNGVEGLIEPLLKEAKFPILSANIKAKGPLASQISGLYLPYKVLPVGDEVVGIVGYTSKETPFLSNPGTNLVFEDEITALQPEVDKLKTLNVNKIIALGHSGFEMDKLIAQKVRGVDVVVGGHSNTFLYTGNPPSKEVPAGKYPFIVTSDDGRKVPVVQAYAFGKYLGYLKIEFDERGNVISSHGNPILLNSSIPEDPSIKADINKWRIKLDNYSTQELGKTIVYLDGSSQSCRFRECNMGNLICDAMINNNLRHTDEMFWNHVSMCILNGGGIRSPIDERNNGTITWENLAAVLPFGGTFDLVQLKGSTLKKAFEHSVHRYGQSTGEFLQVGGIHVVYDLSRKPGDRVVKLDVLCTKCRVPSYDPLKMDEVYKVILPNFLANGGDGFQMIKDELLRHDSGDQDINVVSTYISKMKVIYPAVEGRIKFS
Method: Cell surface CD73 catalyzes the conversion of adenosine monophosphate (AMP) to adenosine and inorganic phosphate. U87 MG human glioblastoma cells express high level of CD73. Cells are treated with compounds in a 96-well assay plate and supernatants are collected into a 384-well detection plate. The concentration of inorganic phosphate (Pi) in the supernatants is determined using the phosphate detection reagent, PiColorLock™ (Innova Bioscience, Cat #303-0125) following the manufacturer's instructions.
Briefly, on the day of the assay, U87 MG cells were harvested and resuspended in assay buffer which consisted of 20 mM HEPES, pH=7.4, 137 mM NaCl, 5.4 mM KCl, 1.3 mM CaCl2, 4.2 mM NaHCO3 and 0.1% glucose. To test the effect of compounds on cellular CD73 enzymatic activity, 500 nL/well of compounds dissolved in DMSO were added to a 96-well TC-treated microplate (Corning #3599). Next, 80 μL/well of U87 MG cells in assay buffer were added to assay plate. After 30 minutes of incubation in an atmosphere of 5% CO2 at 37° C., 20 μL/well of 150 μM AMP (Adenosine 5′-monophosphate monohydrate, Sigma, Cat #01930) in assay buffer was added to assay plate. Final assay conditions consisted of 5000 cells per well in 0.5% DMSO and 30 μM AMP substrate. After 50 minutes of incubation in an atmosphere of 5% CO2 at 37° C., 50 μL/well of supernatant was transferred to the 384-well detection plate (Corning® NBSTM 384 well plates, Cat #3640). Meanwhile “Gold mix” was prepared shortly before use by adding 1/100 volume of accelerator to the PiColorLock™ Gold reagent. 12 μL/well of the “Gold mix” was added to detection plate containing 50 μL/well of supernatant and incubated at 25° C. for 5 minutes. 5 μL/well stabilizer was added to the detection plate and incubated at 25° C. for 30 minutes. The absorbance at 635 nm was measured on a Spark 10M instrument (TECAN).
as §1, with “cells” for “enzyme”, “cells” for “substrate without enzyme”

Row | Structure (SMILES) | pIC50 [1] | pIC50 [2]
1 | O=P(O)(O)CP(=O)(O)OC[C@H]1O[C@@H](c2ccc3c(NCc4ccccc4)nc(Cl)nc3c2)[C@H](O)[C@@H]1O [Compound 1, (((((2R,3S,4R,5S)-5-(4-(benzylamino)-2-chloroquinazolin-7-yl)-3,4-dihydroxytetrahydrofuran-2-yl)methoxy)(hydroxy)phosphoryl)methyl)phosphonic acid] | 7.00 to 8.00 | > 8.00
2 | O=P(O)(O)CP(=O)(O)OC[C@H]1O[C@@H](c2ccc3c(NCCc4ccccc4)nc(Cl)nc3c2)[C@H](O)[C@@H]1O [Compound 2, (((((2R,3S,4R,5S)-5-(2-chloro-4-(phenethylamino)quinazolin-7-yl)-3,4-dihydroxytetrahydrofuran-2-yl)methoxy)(hydroxy)phosphoryl)methyl)phosphonic acid] | 7.00 to 8.00 | > 8.00
3 | CN(c1nc(Cl)nc2cc([C@@H]3O[C@H](COP(=O)(O)CP(=O)(O)O)[C@@H](O)[C@H]3O)ccc12)C1CCCC1 [Compound 3, (((((2R,3S,4R,5S)-5-(2-chloro-4-(cyclopentyl(methyl)amino)quinazolin-7-yl)-3,4-dihydroxytetrahydrofuran-2-yl)methoxy)(hydroxy)phosphoryl)methyl)phosphonic acid] | 7.00 to 8.00 | > 8.00
4 | O=P(O)(O)CP(=O)(O)OC[C@H]1O[C@@H](c2ccc3c(NC4CCCC4)nc(Cl)nc3c2)[C@H](O)[C@@H]1O [Compound 4, (((((2R,3S,4R,5S)-5-(2-chloro-4-(cyclopentylamino)quinazolin-7-yl)-3,4-dihydroxytetrahydrofuran-2-yl)methoxy)(hydroxy)phosphoryl)methyl)phosphonic acid] | > 8.00 | > 8.00
5 | O=P(O)(O)CP(=O)(O)OC[C@H]1O[C@@H](c2ccc3c(N[C@@H]4CCOC4)nc(Cl)nc3c2)[C@H](O)[C@@H]1O [Compound 38, (((((2R,3S,4R,5S)-5-(2-chloro-4-(((R)-tetrahydrofuran-3-yl)amino)quinazolin-7-yl)-3,4-dihydroxytetrahydrofuran-2-yl)methoxy)(hydroxy)phosphoryl)methyl)phosphonic acid] | 7.00 to 8.00 | –
6 | O=P(O)(O)CP(=O)(O)OC[C@H]1O[C@@H](c2ccc3c(NC4CCCC4)nc(C4CC4)nc3c2)[C@H](O)[C@@H]1O [Compound 39, (((((2R,3S,4R,5S)-5-(4-(cyclopentylamino)-2-cyclopropylquinazolin-7-yl)-3,4-dihydroxytetrahydrofuran-2-yl)methoxy)(hydroxy)phosphoryl)methyl)phosphonic acid] | 7.00 to 8.00 | –
7 | O=P(O)(O)CP(=O)(O)OC[C@H]1O[C@@H](c2cnc3c(NC4CCCC4)nc(Cl)nc3c2)[C@H](O)[C@@H]1O [Compound 40, (((((2R,3S,4R,5S)-5-(2-chloro-4-(cyclopentylamino)pyrido[3,2-d]pyrimidin-7-yl)-3,4-dihydroxytetrahydrofuran-2-yl)methoxy)(hydroxy)phosphoryl)methyl)phosphonic acid] | 7.00 to 8.00 | –
8 | CN(c1nc(Cl)nc2cc([C@@H]3O[C@H](COP(=O)(O)CP(=O)(O)O)[C@@H](O)[C@H]3O)cnc12)C1CCCC1 [Compound 41, (((((2R,3S,4R,5S)-5-(2-chloro-4-(cyclopentyl(methyl)amino)pyrido[3,2-d]pyrimidin-7-yl)-3,4-dihydroxytetrahydrofuran-2-yl)methoxy)(hydroxy)phosphoryl)methyl)phosphonic acid] | 7.00 to 8.00 | –
9 | O=P(O)(O)CP(=O)(O)OC[C@H]1O[C@@H](c2ccc3c(NCC4CCC(O)CC4)nc(Cl)nc3c2)[C@H](O)[C@@H]1O (stereo partly drawn) [Compound 42, (((((2R,3S,4R,5S)-5-(2-chloro-4-(((4-hydroxycyclohexyl)methyl)amino)quinazolin-7-yl)-3,4-dihydroxytetrahydrofuran-2-yl)methoxy)(hydroxy)phosphoryl)methyl)phosphonic acid] | 7.00 to 8.00 | –
10 | O=P(O)(O)CP(=O)(O)OC[C@H]1O[C@@H](c2ccc3c(NCC4CC(O)C4)nc(Cl)nc3c2)[C@H](O)[C@@H]1O (stereo partly drawn) [Compound 44, (((((2R,3S,4R,5S)-5-(2-chloro-4-(((3-hydroxycyclobutyl)methyl)amino)quinazolin-7-yl)-3,4-dihydroxytetrahydrofuran-2-yl)methoxy)(hydroxy)phosphoryl)methyl)phosphonic acid] | 7.00 to 8.00 | –
11 | O=P(O)(O)CP(=O)(O)OC[C@H]1O[C@@H](c2ccc3c(NCc4ccccc4)nc(C4CC4)nc3c2)[C@H](O)[C@@H]1O [Compound 45, (((((2R,3S,4R,5S)-5-(4-(benzylamino)-2-cyclopropylquinazolin-7-yl)-3,4-dihydroxytetrahydrofuran-2-yl)methoxy)(hydroxy)phosphoryl)methyl)phosphonic acid] | 7.00 to 8.00 | –
